Laboratory results from patent US20100022559A1, “BISOXIMES AS FUNGICIDES” (BAYER CROPSCIENCE AG, priority 2006, published 2010).

test: logP determination by HPLC on a reversed-phase column (C 18), EEC Directive 79/831 Annex V.A8; format: physicochemical; settings: method marker [a] (footnote not shown); isomer A / isomer B / isomer mixture as noted in the cell
Experimental: The stated logP values were determined in accordance with EEC Directive 79/831 Annex V.A8 by HPLC (high performance liquid chromatography) on a reversed-phase column (C 18). Temperature: 43° C.

Structure (SMILES)	logP
CC(=NOCCCON=C(C)c1cc(-c2ccccc2)ccn1)c1cc(-c2ccccc2)ccn1 [compound 132]	5.74^[a]
CC(=NOCC(C)CON=C(C)c1ccc(C)cn1)c1ccc(C)cn1 (stereo not drawn) [compound 133]	3.67^a]
Cc1cccc(C(CS(C)(=O)=O)=NOCC(C)CON=C(CS(C)(=O)=O)c2cccc(C)n2)n1 (stereo not drawn) [compound 137]	3.08^[a]
Cc1cccc(C(=NOCC(C)CON=C(c2cccc(C)n2)C(C)C)C(C)C)n1 (stereo not drawn) [compound 138]	6.22^a]
CC(=NOCC(=O)ON=C(C)c1cccc(C)n1)c1cccc(C)n1 [compound 158]	2.50^[a]
CC(=NOC(=O)CCC(=O)ON=C(C)c1cccc(C)n1)c1cccc(C)n1 [compound 159]	2.40^[a]
CC(=NOCCCON=C(C)c1ccnc(C)n1)c1ccnc(C)n1 [compound 161]	3.06^[a]
CC(=NOCCCON=C(C)c1cncc(C)c1)c1cncc(C)c1 [compound 163]	1.54^a]
CC(=NOCC(C)CON=C(C)c1cncc(C)c1)c1cncc(C)c1 (stereo not drawn) [compound 166]	1.78^a]
CC(=NOCC(C)CON=C(C)c1ccnc(C)n1)c1ccnc(C)n1 (stereo not drawn) [compound 168]	3.57^a]
Cc1cccc(C(CS(C)(=O)=O)=NOCCCON=C(CS(C)(=O)=O)c2cccc(C)n2)n1 [compound 170]	2.75^[a]
CC(=NOCCCC(=O)ON=C(C)c1cccc(C)n1)c1cccc(C)n1 [compound 171]	2.44^[a]
CC(=NOCC(C)CON=C(C)c1cccc(CC(C)C)n1)c1cccc(CC(C)C)n1 (stereo not drawn) [compound 172]	7.36^[a]
CC(=NOCC1(CON=C(C)c2cccc(C)n2)CO1)c1cccc(C)n1 (stereo not drawn) [compound 220]	2.24^[a]
CC(=NOCC(O)(CON=C(C)c1cccc(C)n1)CON=C(C)c1cccc(C)n1)c1cccc(C)n1 (stereo not drawn) [compound 221]	2.65^[a)
CCCC(=NOCCON=C(CCC)c1cccc(C)n1)c1cccc(C)n1 [compound 226]	5.18^[a]
CCCC(=NOCCCCON=C(CCC)c1cccc(C)n1)c1cccc(C)n1 [compound 227]	6.26^[a]
CC(=NOCCCON=C(C)c1ccc(C)nc1)c1ccc(C)nc1 [compound 228]	1.27^[a]
CC(=NOCCCON=C(C)c1cccc(C(C)C)n1)c1cccc(C(C)C)n1 [compound 230]	7.36^[a]

same assay, conditions: method marker [b]; isomer A / isomer B / isomer mixture as noted in the cell

Structure (SMILES)	logP
C=C(CON=C(C)c1ncccc1Cl)CON=C(C)c1ncccc1Cl [compound 144]	3.64^[b]
C=C(CON=C(C)c1cccc(OC)n1)CON=C(C)c1cccc(OC)n1 [compound 145]	5.89^[b]
C=C(CON=C(C)c1nc(C)cc(C)n1)CON=C(C)c1nc(C)cc(C)n1 [compound 146]	2.91^[b]
C=C(CON=C(C)c1cccc(C)n1)CON=C(C)c1cccnc1Cl [compound 147]	3.34^[b]
C=C(CON=C(C)c1cccnc1Cl)CON=C(C)c1cccnc1Cl [compound 148]	3.53^[b]
C=C(CON=C(C)c1ncc(C(F)(F)F)cc1Cl)CON=C(C)c1ncc(C(F)(F)F)cc1Cl [compound 149]	5.82^[b]
C=C(CON=C(C)c1cccc(Br)n1)CON=C(C)c1cccc(Br)n1 [compound 150]	5.96^[b]
C=C(CON=C(C)c1ccc(Br)nc1)CON=C(C)c1ccc(Br)nc1 [compound 151]	4.56^[b]
C=C(CON=C(C)c1ccc(C)cn1)CON=C(C)c1ccc(C)cn1 [compound 152]	3.36^[b]
C=C(CON=C(C)c1ncc(Cl)cc1Cl)CON=C(C)c1ncc(Cl)cc1Cl [compound 153]	5.75^[b]
CCC(=NOCCCON=C(C)c1cccc(C)n1)c1ncccc1C [compound 156]	3.28^[b]
CC(=NOCC(=O)ON=C(C)c1cccc(C)n1)c1cccc(C)n1 [compound 158]	2.57^b]
C=C(CON=C(C)c1cc(C)c2ccccc2n1)CON=C(C)c1cc(C)c2ccccc2n1 [compound 160]	7.00^b]
C=C(CON=C(C)c1cccc(C(F)(F)F)n1)CON=C(C)c1cccc(C(F)(F)F)n1 [compound 176]	6.02^[b]
C=C(CON=C(C)c1cc(C(=O)OC)cc(C)n1)CON=C(C)c1cc(C(=O)OC)cc(C)n1 [compound 178]	5.46^[b]
C=C(CON=C(C)c1cccc(C)n1)CON=C(N)c1nc(COC)c(C)c(COC)n1 [compound 183]	1.92^[b]
C=C(CON=C(C)c1cccc(C)n1)CON=C(N)c1nc(C)c(Cl)c(C)n1 [compound 184]	2.61^[b]
C=C(CON=C(N)c1cc(C)cc(C)c1)CON=C(C)c1cccc(C)n1 [compound 185]	3.17^[b]
C=C(CON=C(C)c1cccc(C)n1)CON=C(N)c1nccc(C)n1 [compound 187]	1.73^[b]
C=C(CON=C(N)c1cc(Cl)cc(Cl)c1)CON=C(C)c1cccc(C)n1 [compound 190]	4.32^[b]
C=C(CON=C(C)c1cccc(C)n1)CON=C(N)c1nc(C)c(C)c(C)n1 [compound 191]	2.13^[b]
C=C(CON=C(C)c1cccc(C)n1)CON=C(N)c1nc(C)cc(C)n1 [compound 192]	1.97^[b]

Structure (SMILES)	logP
C=C(CON=C(C)c1cccc(C)n1)CON=C(N)c1nc(C)cs1 [compound 193]	2.70^b]
C=C(CON=C(C)c1cccc(C)n1)CON=C(C)c1ncc(Cl)cc1Cl [compound 194]	4.72^b]
C=C(CON=C(C)c1cccc(C)n1)CON=C(C)c1cccs1 [compound 196]	4.23^[b]
C=C(CON=C(C)c1cccc(C)n1)CON=C(C)c1cccn1C [compound 197]	4.37^[b]
C=C(CON=C(C)c1cccc(C)n1)CON=C(C)c1c(C)noc1C [compound 198]	3.50^[b]
C=C(CON=C(C)c1cccc(C)n1)CON=C(N)c1ccc(C)n1C [compound 199]	2.23^[b]
C=C(CON=C(C)c1ccc(Cl)nc1)CON=C(C)c1cccc(C)n1 [compound 201]	3.94^[b]
C=C(CON=C(C)c1cccc(C)c1)CON=C(C)c1cccc(C)n1 [compound 205]	5.03^[b]
C=C(CON=C(C)c1cccc(C)n1)CON=C(C)c1cccc(OC)n1 [compound 207]	4.82^[b]
C=C(CON=C(C)c1ccc(Br)nc1)CON=C(C)c1cccc(C)n1 [compound 208]	4.08^[b]
C=C(CON=C(C)c1ccc(C)cn1)CON=C(C)c1cccc(C)n1 [compound 209]	3.33^b]
C=C(CON=C(C)c1cccc(C)n1)CON=C(N)c1cc(C(F)(F)F)cc(C)n1 [compound 210]	4.37^[b]
C=C(CON=C(C)c1cccc(C)n1)CON=C(C)c1cc(C(F)(F)F)cc(C)n1 [compound 211]	5.70^[b]
Cc1cccc(C(=NOCC(C)CON=C(c2cccc(C)n2)C(F)(F)F)C(F)(F)F)n1 (stereo not drawn) [compound 214]	4.83^[b]
CC(=NOCC1OC(C)(C)OC1CON=C(C)c1cccc(C)n1)c1cccc(C)n1 (stereo not drawn) [compound 215]	3.09^[b]
C=C(CON=C(C)c1cccc(C)n1)CON=C(C)c1nc2ccccc2s1 [compound 218]	4.79^[b]
C=C(CON=C(C)c1cccc(C)n1)CON=C(N)c1ncc(F)cc1F [compound 242]	2.48^[b)
C=C(CON=C(C)c1cccc(C)n1)CON=C(N)c1ncc(C(F)(F)F)cc1Cl [compound 245]	3.50^[b]
C=C(CON=C(C)c1cccc(C)n1)CON=C(N)c1ncc(Cl)cc1Cl [compound 246]	3.00^[b]
COc1cccc(C(C)=NOCC(=O)CON=C(C)c2cccc(OC)n2)n1 [compound 247]	4.61^[b]
C=C(CON=C(C)c1cccc(C)n1)CON=C(C)c1nccc(OCC)n1 [compound 249]	3.17^[b]
C=C(CON=C(C)c1nccc(OCC)n1)CON=C(C)c1nccc(OCC)n1 [compound 252]	3.42^[b]

same assay, conditions: value marked [a]

Structure (SMILES)	logP
CC(=NOCCCON=C(C)c1nc(C)c(C)cc1C)c1nc(C)c(C)cc1C [compound 256]	1.84^[a]
CCOC(=O)c1cccc(C(C)=NOCCCON=C(C)c2cccc(C(=O)OCC)n2)n1 [compound 257]	4.06^[a]
CCOC(=O)c1cccc(C(C)=NOCC(C)CON=C(C)c2cccc(C(=O)OCC)n2)n1 (stereo not drawn) [compound 258]	5.03^[a]
CC(=NOCCCON=C(C)c1cc(C)n(C)n1)c1cc(C)n(C)n1 [compound 259]	2.70^[a]
CC(=NOCCCON=C(C)c1ccc2c(n1)CCCC2)c1ccc2c(n1)CCCC2 [compound 305]	3.96^[a]
CC(=NOCC(C)CON=C(C)c1cccc(C(F)F)n1)c1cccc(C(F)F)n1 (stereo not drawn) [compound 306]	5.49^[a]

same assay, conditions: value marked [b]

Structure (SMILES)	logP
COc1cc(O)nc(C(C)=NOCC(C)CON=C(C)c2nc(OC)cc(OC)n2)n1 (stereo not drawn) [compound 271]	3.05^[b]
CC(=NOCC(C)CON=C(C)c1nc(C)cc(C(F)(F)F)n1)c1nc(C)cc(C(F)(F)F)n1 (stereo not drawn) [compound 273]	4.86^[b]
C=C(CON=C(C)c1cc(C)c(C)nn1)CON=C(C)c1cc(C)c(C)nn1 [compound 284]	2.33^[b]
CC(=NOC[C@@H]1O[C@H]1CON=C(C)c1cccc(C)n1)c1cccc(C)n1 [compound 285]	2.17^[b]
CC(=NOC[C@@H]1O[C@@H]1CON=C(C)c1cccc(C)n1)c1cccc(C)n1 [compound 287]	2.42^[b]
C=C(CON=C(C)c1cccc(COC)n1)CON=C(C)c1cccc(COC)n1 [compound 291]	4.44^[b]
CC(=NOCC(O)CON=C(C)c1cccc(C)n1)c1cccc(C)n1 (stereo not drawn) [compound 293]	1.46^[b]
CC(=NOCC(C)CON=C(C)c1cc(C)c(C)nn1)c1cc(C)c(C)nn1 (stereo not drawn) [compound 309]	2.58^[b]
CC(=NOCC(C)CON=C(C)c1cccc(C)[n+]1[O-])c1cccc(C)[n+]1[O-] (stereo not drawn) [compound 314]	1.69^[b]
CC(=NOCC(O)CON=C(C)c1ccc(C)c(C)n1)c1ccc(C)c(C)n1 (stereo not drawn) [compound 323]	1.36^[b]
CC(=NOCCCCON=C(C)c1cccc(Cc2ccccc2)n1)c1cccc(C)n1 [compound 324]	5.84^[b]

same assay, conditions: value marked [c]

Structure (SMILES)	logP
CC(=NOCC(O)CON=C(C)c1ccc(C)c(C)n1)c1ccc(C)c(C)n1 (stereo not drawn) [compound 323]	3.81^[c]
